Consider 20 compounds from patent publication US10919891B2, “Heterocyclic compound” (TAKEDA PHARMACEUTICAL COMPANY LIMITED, priority 2017, dated 2021).

The first experiment addresses T1, human CaSR (Homo sapiens, UniProt P41180).
T1 construct: expressed in transfected cells; host or cells: CHO cells
T1 sequence (P41180 20-1078): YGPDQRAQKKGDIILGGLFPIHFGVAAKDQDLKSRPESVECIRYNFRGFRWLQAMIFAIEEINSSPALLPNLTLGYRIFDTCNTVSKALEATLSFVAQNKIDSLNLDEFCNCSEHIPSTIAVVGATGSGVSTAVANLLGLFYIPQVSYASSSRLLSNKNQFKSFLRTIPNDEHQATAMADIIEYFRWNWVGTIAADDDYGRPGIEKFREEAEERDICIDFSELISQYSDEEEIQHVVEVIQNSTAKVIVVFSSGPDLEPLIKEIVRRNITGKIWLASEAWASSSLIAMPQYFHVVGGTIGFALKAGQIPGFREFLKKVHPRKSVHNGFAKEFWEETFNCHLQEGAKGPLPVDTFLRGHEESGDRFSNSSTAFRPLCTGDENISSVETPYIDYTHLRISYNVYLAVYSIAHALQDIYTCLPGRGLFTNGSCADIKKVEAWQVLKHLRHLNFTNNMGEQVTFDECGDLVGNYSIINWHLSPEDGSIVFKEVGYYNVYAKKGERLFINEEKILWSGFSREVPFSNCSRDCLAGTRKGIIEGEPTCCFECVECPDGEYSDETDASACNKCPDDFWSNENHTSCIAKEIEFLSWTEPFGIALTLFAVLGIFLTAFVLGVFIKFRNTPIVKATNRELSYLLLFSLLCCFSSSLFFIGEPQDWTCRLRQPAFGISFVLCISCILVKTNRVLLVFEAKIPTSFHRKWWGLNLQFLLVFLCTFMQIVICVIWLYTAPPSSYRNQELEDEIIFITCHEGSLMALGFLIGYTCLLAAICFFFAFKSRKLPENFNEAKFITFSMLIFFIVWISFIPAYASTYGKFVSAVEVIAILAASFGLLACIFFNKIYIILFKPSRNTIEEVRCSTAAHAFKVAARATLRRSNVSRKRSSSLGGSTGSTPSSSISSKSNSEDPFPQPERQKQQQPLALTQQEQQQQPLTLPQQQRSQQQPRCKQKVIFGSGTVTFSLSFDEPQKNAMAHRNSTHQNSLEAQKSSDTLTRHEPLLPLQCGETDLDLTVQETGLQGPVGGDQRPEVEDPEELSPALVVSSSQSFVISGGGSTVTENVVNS
The experiment in a line: Human CaSR Antagonist Activity (CHO cells, NFAT-Luciferase reporter). It is filed as cell-based. The settings on record: 3.3 μm test compound; CaCl2 final 1.3 mM; 100% = reference carboxamide at 10 μM. The protocol:
CaSR antagonist activity measurement was performed using Bright-Glo Luciferase assay system (Promega Corporation). CHO cells in which human CaSR and NFAT-Luciferase reporter gene were forcibly expressed were suspended in MEM alpha (Wako Pure Chemical Industries, Ltd.) containing 10% dialyzed serum (HyClone). The cells in suspension was seeded in 384-well white plate (Corning) at 10,000/20 μL/well, and cultured in an incubator of 37° C., 5% CO2 for one day. A diluent of Test compound was prepared with assay buffer (MEM alpha containing 10 mM HEPES (Life Technologies) and 10% dialysis serum). The diluent was added to the plate at 5 μL/well and allowed to stand at 37° C. for 10 minutes. Further, a diluent of 7.8 mM CaCl2 prepared with assay buffer (final concentration 1.3 mM) was added at 5 μl/well and allowed to stand in an incubator of 37° C., 5% CO2 for 2 hours. Bright-Glo reagents (Promega Corporation) were added at 10 μL/well, and the obtained mixture was stirred for 5 minutes, and then luminescence intensity was measured using Multi-label reader Envision (PerkinElmer, Inc.). The activity (%) of the test compound was calculated with the definitions in which the luminescence intensity when DMSO is added in place of the test compound is defined as 0% inhibition; and the luminescence intensity when (5R)—N-(1-ethyl-1-(4-ethylphenyl)propyl)-2,7,7-trimethyl-5-phenyl-4,5,6,7-tetrahydropyrazolo[1,5-a]Pyrimidine-3-carboxamide at final concentration of 10 μM is added is defined as 100% inhibition.
As for `COc1cccc(C23CC2CN(C(=O)c2cnn4c2N[C@@H](c2ccccc2)CC4(C)C)C3)c1` (stereo partly drawn) [Example 20, ((5R)-7,7-Dimethyl-5-phenyl-4,5,6,7-tetrahydropyrazolo[1,5-a]pyrimidin-3-yl)(1-(3-methoxyphenyl)-3-azabicyclo[3.1.0]hex-3-yl)methanone], the “Inhibition rate (%) at 3.3 μm” value was determined as 93%.

Turning to `Cc1cccc(C23CC2CN(C(=O)c2cnn4c2N[C@@H](c2ccccc2)CC4(C)C)C3)c1` (stereo partly drawn) [Example 23, ((5R)-7,7-Dimethyl-5-phenyl-4,5,6,7-tetrahydropyrazolo[1,5-a]pyrimidin-3-yl)(1-(3-methylphenyl)-3-azabicyclo[3.1.0]hex-3-yl)methanone], the “Inhibition rate (%) at 3.3 μm” value was found to be 92%.

With `CC1(C)C[C@H](c2ccccc2)Nc2c(C(=O)N3CC4CC4(c4cccc(Cl)c4)C3)cnn21` (stereo partly drawn) [Example 17, (1-(3-Chlorophenyl)-3-azabicyclo[3.1.0]hex-3-yl)((5R)-7,7-dimethyl-5-phenyl-4,5,6,7-tetrahydropyrazolo[1,5-a]pyrimidin-3-yl)methanone], the “Inhibition rate (%) at 3.3 μm” value was found to be 95%. Still for that read-out and setting: next, `CC1(C)C[C@H](c2ccccc2)Nc2c(C(=O)N3CC4CC4(c4ccc(C(F)(F)F)cc4F)C3)cnn21` (stereo partly drawn) [Example 28, ((5R)-7,7-Dimethyl-5-phenyl-4,5,6,7-tetrahydropyrazolo[1,5-a]pyrimidin-3-yl)(1-(2-fluoro-4-(trifluoromethyl)phenyl)-3-azabicyclo[3.1.0]hex-3-yl)methanone]: 101%; `CC1(C)C[C@H](c2ccccc2)Nc2c(C(=O)N3CC4CC4(c4ccc(C(F)(F)F)cc4F)C3)cnn21` (stereo partly drawn) [Example 29, ((5R)-7,7-Dimethyl-5-phenyl-4,5,6,7-tetrahydropyrazolo[1,5-a]pyrimidin-3-yl)(1-(2-fluoro-4-(trifluoromethyl)phenyl)-3-azabicyclo[3.1.0]hex-3-yl)methanone]: 92%.

The same experiment, now with this note: CHO, 2 h, 3.3 μm test compound; CaCl2 final 1.3 mM; 100% = reference carboxamide at 10 μM; read-out: Inhibition rate (%) at 3.3 μm.
Consider `Cc1cccc(C23CC2CN(C(=O)c2cnn4c2N[C@@H](c2ccccc2)CC4(C)C)C3)c1` (stereo partly drawn) [Example 22, ((5R)-7,7-Dimethyl-5-phenyl-4,5,6,7-tetrahydropyrazolo[1,5-a]pyrimidin-3-yl)(1-(3-methylphenyl)-3-azabicyclo[3.1.0]hex-3-yl)methanone], for which the inhibition at 3.3 µM was 101%. The same measure, in the same setting: next, `CC1(C)C[C@H](c2ccccc2)Nc2c(C(=O)N3CC4CC4(c4ccsc4)C3)cnn21` (stereo partly drawn) [Example 46, ((5R)-7,7-Dimethyl-5-phenyl-4,5,6,7-tetrahydropyrazolo[1,5-a]pyrimidin-3-yl)(1-(3-thienyl)-3-azabicyclo[3.1.0]hex-3-yl)methanone]: 99%; `CC1(C)C[C@H](c2ccccc2)Nc2c(C(=O)N3C[C@@H]4C[C@]4(C(F)F)C3)cnn21` [Example 47]: 96%. Still for that read-out and setting: under `COc1cccc(C23CN(C(=O)c4cnn5c4N[C@@H](c4ccccc4)CC5(C)C)CC2C3(F)F)c1` (stereo partly drawn) [Example 51, (6,6-Difluoro-1-(3-methoxyphenyl)-3-azabicyclo[3.1.0]hex-3-yl)((5R)-7,7-dimethyl-5-phenyl-4,5,6,7-tetrahydropyrazolo[1,5-a]pyrimidin-3-yl)methanone] stands 115%. On the same count and under the same terms, under `CC1(C)C[C@H](c2ccccc2)Nc2c(C(=O)N3CC4CC4(c4cccc(C(F)(F)F)c4)C3)cnn21` (stereo partly drawn) [Example 25, ((5R)-7,7-Dimethyl-5-phenyl-4,5,6,7-tetrahydropyrazolo[1,5-a]pyrimidin-3-yl)(1-(3-(trifluoromethyl)phenyl)-3-azabicyclo[3.1.0]hex-3-yl)methanone] stands 97%; under `CC1(C)C[C@H](c2ccccc2)Nc2c(C(=O)N3CC4C[C@]4(c4ccc(C(F)(F)F)cc4)C3)cnn21` (stereo partly drawn) [Example 8, ((5R)-7,7-Dimethyl-5-phenyl-4,5,6,7-tetrahydropyrazolo[1,5-a]pyrimidin-3-yl)(1-(4-(trifluoromethyl)phenyl)-3-azabicyclo[3.1.0]hex-3-yl)methanone], 92%; under `CC1(C)C[C@H](c2ccccc2)Nc2c(C(=O)N3CC4CC4(c4ccncc4)C3)cnn21` (some centres unmarked) [Example 45], 96%. For the compound `COc1ccc(C23CN(C(=O)c4cnn5c4N[C@@H](c4ccccc4)CC5(C)C)CC2C3(F)F)cc1` (stereo partly drawn) [Example 50, (6.6-Difluoro-1-(4-methoxyphenyl)-3-azabicyclo[3.1.0]hex-3-yl)((5R)-7,7-dimethyl-5-phenyl-4,5,6,7-tetrahydropyrazolo[1,5-a]pyrimidin-3-yl)methanone], the inhibition at 3.3 µM was found to be 128%. Same read-out and setting: next, `CC1(C)C[C@H](c2ccccc2)Nc2c(C(=O)N3CC4CC4(c4cccc(Cl)c4)C3)cnn21` (stereo partly drawn) [Example 16, (1-(3-Chlorophenyl)-3-azabicyclo[3.1.0]hex-3-yl)((5R)-7,7-dimethyl-5-phenyl-4,5,6,7-tetrahydropyrazolo[1,5-a]pyrimidin-3-yl)methanone]: 100%; `Cc1cccc(C23CN(C(=O)c4cnn5c4N[C@@H](c4ccccc4)CC5(C)C)CC2C3(F)F)c1` (stereo partly drawn) [Example 49, (6,6-Difluoro-1-(3-methylphenyl)-3-azabicyclo[3.1.0]hex-3-yl)((5R)-7,7-dimethyl-5-phenyl-4,5,6,7-tetrahydropyrazolo[1,5-a]pyrimidin-3-yl)methanone]: 136%; `CC1(C)C[C@H](c2ccccc2)Nc2c(C(=O)N3CC4CC4(c4ccc(C(F)(F)F)c(Cl)c4)C3)cnn21` (stereo partly drawn) [Example 12, (1-(3-Chloro-4-(trifluoromethyl)phenyl)-3-azabicyclo[3.1.0]hex-3-yl)((5R)-7,7-dimethyl-5-phenyl-4,5,6,7-tetrahydropyrazolo[1,5-a]pyrimidin-3-yl)methanone]: 90%.

Take `COc1cccc(C23CC2CN(C(=O)c2cnn4c2N[C@@H](c2ccccc2)CC4(C)C)C3)c1` (stereo partly drawn) [Example 19, ((5R)-7,7-Dimethyl-5-phenyl-4,5,6,7-tetrahydropyrazolo[1,5-a]pyrimidin-3-yl)(1-(3-methoxyphenyl)-3-azabicyclo[3.1.0]hex-3-yl)methanone]: the inhibition at 3.3 µM was determined as 99%. Same read-out and setting: next, `Cc1ccc(C23CN(C(=O)c4cnn5c4N[C@@H](c4ccccc4)CC5(C)C)CC2C3(F)F)cc1` (stereo partly drawn) [Example 48, (6,6-Difluoro-1-(4-methylphenyl)-3-azabicyclo[3.1.0]hex-3-yl)((5R)-7,7-dimethyl-5-phenyl-4,5,6,7-tetrahydropyrazolo[1,5-a]pyrimidin-3-yl)methanone]: 117%; `CC1(C)C[C@H](c2ccccc2)Nc2c(C(=O)N3CC4CC4(c4ccc(C(F)(F)F)cc4F)C3)cnn21` (stereo partly drawn) [Example 27, ((5R)-7,7-Dimethyl-5-phenyl-4,5,6,7-tetrahydropyrazolo[1,5-a]pyrimidin-3-yl)(1-(2-fluoro-4-(trifluoromethyl)phenyl)-3-azabicyclo[3.1.0]hex-3-yl)methanone]: 111%.

For the compound `COc1ccccc1C12CN(C(=O)c3cnn4c3N[C@@H](c3ccccc3)CC4(C)C)CC1C2(F)F` (stereo partly drawn) [Example 52, (6,6-Difluoro-1-(2-methoxyphenyl)-3-azabicyclo[3.1 0]hex-3-yl)((5R)-7,7-dimethyl-5-phenyl-4.5,5,7-tetrahydropyrazolo[1,5-a]pyrimidin-3-yl)methanone], the inhibition at 3.3 µM was determined as 111%.
